Assay results: patent US11274124B2, “Tubulysin analogues as anticancer agents and payloads for antibody-drug conjugates and methods of treatment therewith” (William Marsh Rice University, priority 2017, dated 2022)
pIC50: −log10 of the molar value. Like-named read-outs stand apart in the source and are kept apart here.

How the values were obtained:
[1] = test system: MES SA (uterine sarcoma cell line); experiment: In vitro cytotoxicity assay (CellTiter-Glo, 72 hours), MES SA; type: cell-based; conditions: for IC50: read-out: MES SA, IC50 Value in nM; for pIC50: read-out: MES SA, IC50
[2] = test system: HEK 293T (human embryonic kidney cancer cell line); experiment: In vitro cytotoxicity assay (CellTiter-Glo, 72 hours), HEK 293T; type: cell-based; conditions: for IC50: read-out: HEK 293T, IC50 Value in nM; for pIC50: read-out: HEK 293T, IC50
[3] = test system: MES SA DX (MES SA cell line with marked multi-drug resistance); experiment: In vitro cytotoxicity assay (CellTiter-Glo, 72 hours), MES SA DX; conditions: for IC50: read-out: MES SA DX, IC50 Value in nM; for pIC50: read-out: MES SA DX, IC50
[4] = Table 2, 72 hours, CellTiter-Glo

COC(=O)[C@@H](C)C[C@H](Cc1ccccc1)NC(=O)c1csc([C@@H](C[C@H](C(C)C)N(C)C(=O)[C@H](CC(F)(F)F)NC(=O)[C@H]2CCCCN2C)OC(C)=O)n1 [Tb81, Methyl (2S,4R)-4-[({2-[(1R,3R)-1-acetoxy-4-methyl-3-{methyl[(2S)-4,4,4-trifluoro-2-({[(2R)-1-meth-ylpiperidin-2-yl]carbonyl}amino)butanoyl]amino}pentyl]-1,3-thiazol-4-yl}carbonyl)amino]-2-methyl-5-phenylpentanoate]
IC50 ([1]; Homo sapiens, MES-SA, 72 h): 5.84 nM | IC50 ([2]; Homo sapiens, HEK-293T, 72 h): 4.98 nM | IC50 ([3]; Homo sapiens, MES-SA, 72 h): > 1000 nM

COC(=O)[C@@H](C)C[C@H](Cc1ccccc1)NC(=O)c1csc([C@@H](C[C@H](C(C)C)N(C)C(=O)[C@H](CC(F)(F)F)NC(=O)[C@H]2CCCN2C)OC(C)=O)n1 [Tb82, Methyl (2S,4R)-4-[({2-[(1R,3R)-1-acetoxy-4-methyl-3-{methyl[(2S)-4,4,4-trifluoro-2-({[(2R)-1-methylpyrrolidin-2-yl]carbonyl}amino)butanoyl]amino}pentyl]-1,3-thiazol-4-yl}carbonyl)amino]-2-methyl-5-phenylpentanoate]
IC50 ([1]; Homo sapiens, MES-SA, 72 h): 47.5 nM | IC50 ([2]; Homo sapiens, HEK-293T, 72 h): 51.6 nM | IC50 ([3]; Homo sapiens, MES-SA, 72 h): > 1000 nM

COC(=O)[C@@H](C)C[C@H](Cc1ccccc1)NC(=O)c1csc([C@@H](C[C@H](C(C)C)N(C)C(=O)[C@@H](NC(=O)[C@H]2CCCCN2C)C(C)C)OC(C)=O)n1 [Tb32, reference compound]
IC50 [1, 4]: 0.012 nM | IC50 [2, 4]: 0.002 nM | IC50 [3, 4]: 1.29 nM

COC(=O)[C@@H](C)C[C@H](Cc1ccccc1)NC(=O)c1cccc([C@@H](C[C@H](C(C)C)N(C)C(=O)[C@@H](NC(=O)[C@H]2CCCCN2C)C(C)C)OC(C)=O)n1 [Tb64, Methyl (2S,4R)-4-[({6-[(1R,3R)-1-acetoxy-4-methyl-3-{methyl[(2S)-3-methyl-2-({[(2R)-1-methyl-piperidin-2-yl]carbonyl}amino)butanoyl]amino}pentyl]pyridin-2-yl}carbonyl)amino]-2-methyl-5-phenylpentanoate]
pIC50 ([1]; Homo sapiens, MES-SA, 72 h): 9.66 | IC50 ([1]; Homo sapiens, MES-SA, 72 h): 0.22 nM | pIC50 ([2]; Homo sapiens, HEK-293T, 72 h): 10.00 | IC50 ([2]; Homo sapiens, HEK-293T, 72 h): 0.1 nM | pIC50 ([3]; Homo sapiens, MES-SA, 72 h): 6.96 | IC50 ([3]; Homo sapiens, MES-SA, 72 h): 109 nM

CC(=O)O[C@H](C[C@H](C(C)C)N(C)C(=O)[C@@H](NC(=O)[C@H]1CCCCN1C)C(C)C)c1nc(C(=O)N[C@@H](Cc2ccccc2)CC2C(=O)OC(C)(C)OC2=O)cs1 [Tb114, 1-(4-{[1-(2,2-Dimethyl-4,6-dioxo-1,3-dioxan-5-yl)-3-phenylpropan-2-yl]carbamoyl}-1,3-thiazol-2-yl)-4-methyl-3-[methyl(3-methyl-2-{[(1-methylpiperidin-2-yl)carbonyl]amino}butanoyl)amino]-pentyl acetate]
IC50 ([1]; Homo sapiens, MES-SA, 72 h): 1.23 nM | IC50 ([2]; Homo sapiens, HEK-293T, 72 h): 0.524 nM | IC50 ([3]; Homo sapiens, MES-SA, 72 h): > 400 nM

CC(=O)O[C@H](CC(C(C)C)N(C)C(=O)[C@@H](NC(=O)[C@H]1CCCCN1C)C(C)C)c1nc(C(=O)NC(Cc2ccccc2)CC(C)C(=O)O)c(CCO)s1 (stereo in doubt) [Tb113, (2R,4S)-4-[({2-[(1R,3S)-1-Acetoxy-4-methyl-3-{methyl[(2S)-3-methyl-2-{[(1-methylpiperidin-2-yl)-carbonyl]amino}butanoyl]amino}pentyl]-5-(2-hydroxyethyl)-1,3-thiazol-4-yl}carbonyl)amino]-2-methyl-5-phenylpentanoic acid]
IC50 ([1]; Homo sapiens, MES-SA, 72 h): 5.79 nM | IC50 ([2]; Homo sapiens, HEK-293T, 72 h): 0.315 nM | IC50 ([3]; Homo sapiens, MES-SA, 72 h): > 400 nM

COC(=O)[C@@H](CO)C[C@H](Cc1ccccc1)NC(=O)c1csc([C@@H](C[C@H](C(C)C)N(C)C(=O)[C@@H](NC(=O)[C@H]2CCCCN2C)C(C)C)OC(C)=O)n1 [Tb119, Methyl (2R,4R)-4-{2-[(1R,3R)-1-acetoxy-3-{(S)—N,3-dimethyl-2-[(R)-1-methylpiperidine-2-carboxamido]butanamido}-4-methylpentyl]thiazole-4-carboxamido}-2-(hydroxymethyl)-5-phenylpentanoate]
pIC50 ([1]; Homo sapiens, MES-SA, 72 h): 10.03 | IC50 ([1]; Homo sapiens, MES-SA, 72 h): 0.093 nM | pIC50 ([2]; Homo sapiens, HEK-293T, 72 h): 10.39 | IC50 ([2]; Homo sapiens, HEK-293T, 72 h): 0.041 nM | pIC50 ([3]; Homo sapiens, MES-SA, 72 h): < 7.85 | IC50 ([3]; Homo sapiens, MES-SA, 72 h): > 14 nM
